Measured values reported in patent US20150056186A1, “COMBINATION THERAPY OF A TYPE II ANTI-CD20 ANTIBODY WITH AN ANTI-BCL-2 ACTIVE AGENT” (Hoffmann-La Roche Inc., priority 2007, published 2015).

Assays:
[1] = test system: Z138 human B-Cell Non-Hodgkin-lymphoma (NHL) cells; assay: Tumor growth inhibition study in vivo, Z138 MCL xenografts in SCID beige mice; details: 10 mg/kg i.v. q7d
From the text: Z138 human B-Cell Non-Hodgkin-lymphoma (NHL) cells were originally obtained from Glycart (Mantle cell lymphoma-MCL). […] Passage 2 was used for transplantation.
Animal treatment started at day of randomisation, 14 days after s.c. cell transplantation.
Therefore s.c. xenografts models in SCID beige mice are not appropriate for mimicking human ADCC mediated effect with glycoengineered modified antibodies.

[2] = target: T1, CD20 on Raji cells (ATCC-No. CCL-86) (Homo sapiens, UniProt P11836); assay: Ratio of the binding capacities to CD20 on Raji cells compared to rituximab (direct immunofluorescence, Cy5, FACSArray); details: Cy5-conjugated antibodies, MFI at EC50, corrected for Cy5-labeling ratio
T1 construct: generated by direct immunofluorescence using the Burkitt's lymphoma cell line Raji (ATCC-No. CCL-86); host or cells: Raji cells
T1 sequence (P11836 1-297): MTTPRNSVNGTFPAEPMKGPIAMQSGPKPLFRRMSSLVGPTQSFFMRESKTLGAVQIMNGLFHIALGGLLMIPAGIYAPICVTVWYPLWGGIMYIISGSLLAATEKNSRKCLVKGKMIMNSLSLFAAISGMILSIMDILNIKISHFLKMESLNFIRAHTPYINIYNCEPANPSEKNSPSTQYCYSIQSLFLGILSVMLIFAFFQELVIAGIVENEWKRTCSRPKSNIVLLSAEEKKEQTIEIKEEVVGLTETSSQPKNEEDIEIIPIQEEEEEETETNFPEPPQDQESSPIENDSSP
Procedure: MFI is the mean fluorescent intensity. The “Cy5-labeling ratio” as used herein means the number of Cy5-label molecules per molecule antibody.
Raji cells (ATCC-No. CCL-86) were maintained in culture in RPMI-1640 medium (PanBiotech GmbH, Cat.-No. PO4-18500) containing 10% FCS (Gibco, Cat.-No. 10500-064). […] 5*10^5 cells per sample were stained for 30 min at 4° C. Afterwards, cells were washed in culture medium. Propidium iodide (PI) staining was used to exclude dead cells.
Then the ratio of the binding capacities to CD20 on Raji cells (ATCC-No. CCL-86) is calculated according to the following formula: […]

## B-HH6-B-KV1 wt: Type II anti-CD20 antibody, humanized B-Ly1 B-HH6-B-KV1 wildtype (non-glycoengineered)
[1]
  Antitumor activity, later outcome: most of Z138 tumor xenografts showed complete remission
  Difference in antitumor activity between wt and glycoengineered versions: No significant differences
[1]; 19 days after treatment initiation
  Antitumor activity at time of control termination: all antibody tumors regressed

## B-HH6-B-KV1: Type II anti-CD20 antibody (humanized B-Ly1 antibody) of Example 2; FIG. 2 legend calls it B-HH6-B-KV1 GE
[2]
  Ratio of the binding capacities to CD20 on Raji cells compared to rituximab: reduces binding capacity compared to rituximab
